Format in all cases: cell-based
The subject of assay [1] is S. pneumoniae. As to the kind of experiment: MIC, Gram-positive bacteria: S. pneumoniae. The settings on record: Streptococcus pneumoniae, column 10, read-out: Minimal Inhibitory Concentration (MIC) S. pneumoniae.
The subject of assay [2] is K. pneumoniae multidrug-resistant. The experiment in a line: MIC, Gram-negative bacteria: K. pneumoniae multidrug-resistant. The settings on record: Klebsiella pneumoniae, read-out: Minimal Inhibitory Concentration (MIC) K. pneumoniae multidrug-resistant.
Assay [3] has as its system E. faecalis. As to the kind of experiment: MIC, Gram-positive bacteria: E. faecalis. The settings on record: Enterococcus faecalis, column 1, read-out: Minimal Inhibitory Concentration (MIC) E. faecalis.
In assay [4] the test system is P. aeruginosa MDR clinical isolate. As to the kind of experiment: MIC, Gram-negative bacteria: P. aeruginosa MDR clinical isolate. The settings on record: Pseudomonas aeruginosa, read-out: Minimal Inhibitory Concentration (MIC) P. aeruginosa MDR clinical isolate.
Assay [5] concerns E. faecium ATCC 35667. As to the kind of experiment: MIC, Gram-positive bacteria: E. faecium ATCC 35667. The settings on record: Enterococcus faecium, ATCC35667, column 2, read-out: Minimal Inhibitory Concentration (MIC) E. faecium ATCC 35667.
The test system of assay [6] is E. faecium VRE; vanA. The experiment in a line: MIC, Gram-positive bacteria: E. faecium VRE; vanA. The settings on record: Enterococcus faecium, column 3, read-out: Minimal Inhibitory Concentration (MIC) E. faecium VRE.
In assay [7] the test system is S. aureus Linezolid-resistant; cfr. The experiment in a line: MIC, Gram-positive bacteria: S. aureus Linezolid-resistant; cfr. The settings on record: Staphylococcus aureus, column 9, read-out: Minimal Inhibitory Concentration (MIC) S. aureus Linezolid-resistant.
In assay [8] the test system is P. aeruginosa ATCC 27853. As to the kind of experiment: MIC, Gram-negative bacteria: P. aeruginosa ATCC 27853. The settings on record: Pseudomonas aeruginosa, ATCC27853, read-out: Minimal Inhibitory Concentration (MIC) P. aeruginosa ATCC 27853.
Assay [9] has as its system S. aureus Vat A streptogramin. The experiment in a line: MIC, Gram-positive bacteria: S. aureus Vat A streptogramin. The settings on record: Staphylococcus aureus; Gram-positive; column 5; read-out: Minimal Inhibitory Concentration (MIC) S. aureus Vat A streptogramin.
Assay [10] deals with Gram-Negative Organisms. The experiment in a line: microbe, parasite or virus in culture.
Assay [11] concerns S. aureus. As to the kind of experiment: MIC, Gram-positive bacteria: S. aureus (strains not named). The settings on record: Staphylococcus aureus, read-out: Minimal Inhibitory Concentration (MIC) S. aureus.
Assay [12] relates to H. influenzae ATCC 49247. The experiment in a line: MIC, Gram-negative bacteria: H. influenzae ATCC 49247. The settings on record: Haemophilus influenzae, ATCC49247, read-out: Minimal Inhibitory Concentration (MIC) H. influenzae ATCC 49247.
The mark [13] stands for this setting: Acinetobacter baumannii, ATCC19606, read-out: Minimal Inhibitory Concentration (MIC), A. baumannii ATCC 19606.
[14] abbreviates: Escherichia coli, ATCC25922, read-out: Minimal Inhibitory Concentration (MIC), E. coli ATCC 25922.
Where [15] appears, read: Escherichia coli, read-out: Minimal Inhibitory Concentration (MIC), E. coli BAS2006, OMP C, OMP F.
The mark [16] stands for this setting: Escherichia coli, read-out: Minimal Inhibitory Concentration (MIC), E. coli olC efflux defective.
Setting [17] is: Escherichia coli, read-out: Minimal Inhibitory Concentration (MIC), E. coli permeability mutant BAS1314, IMP4213ZAB::TN10.
The mark [18] stands for this setting: Klebsiella pneumoniae, ATCC43816, read-out: Minimal Inhibitory Concentration (MIC), K. pneumoniae ATCC 43816.
[19] abbreviates: first unnamed S. aureus column (c4).
Setting [20] is: fourth unnamed S. aureus column (c8).
Setting [21] is: second unnamed S. aureus column (c6).
Where [22] appears, read: third unnamed S. aureus column (c7).
Where [23] appears, read: Escherichia coli, read-out: Minimal Inhibitory Concentration (MIC), E. coli ΔompC768, KanR insert.

Converted amounts (≈) assume the structure as drawn. Where two headings read alike, the source gives them in different places. Where only a bound is given, the exact number is not on record here.

With `CC1=C\[C@@H](O)CC(=O)Cc2nc(co2)C(=O)N2CCC[C@@H]2C(=O)O[C@H]([C@@H](C)COC(=O)Nc2cc(C)on2)[C@H](C)/C=C/C(=O)NC\C=C\1` [SA0110115], the MIC in assay [1] is 16 mg/L (≈ 24 µM); in assay [2] it was over 64 mg/L; in assay [3], over 64 mg/L; in assay [4] it was over 64 mg/L; in [5] it was 32 mg/L (≈ 47.9 µM); in assay [6], over 64 mg/L. For the same molecule, the MIC in [7] is over 64 mg/L; in assay [8], over 64 mg/L; in assay [9] it was over 64 mg/L; in assay [10] (setting [13]), over 64 mg/L; in assay [10] (setting [14]), over 64 mg/L; in [10] (setting [15]) it was 64 mg/L (≈ 95.8 µM). In addition, the MIC in assay [10] (setting [16]) was 8 mg/L (≈ 12 µM); in [10] (setting [17]), 16 mg/L (≈ 24 µM); in assay [10] (setting [18]), over 64 mg/L; in assay [11] (setting [19]), over 64 mg/L; in [11] (setting [20]), 64 mg/L (≈ 95.8 µM); in assay [11] (setting [21]), over 64 mg/L. Besides, the MIC is over 64 mg/L in assay [11] (setting [22]) and 64 mg/L (≈ 95.8 µM) in assay [12].
For the molecule `CC1=C\[C@@H](O)CC(=O)Cc2nc(co2)C(=O)N2CCC[C@@H]2C(=O)O[C@H]([C@@H](C)CO)[C@H](C)/C=C/C(=O)NC\C=C\1` [SA0110026], the MIC is 64 mg/L (≈ 118 µM) in assay [1]; over 64 mg/L in [2]; over 64 mg/L in assay [3]; over 64 mg/L in [4]; 64 mg/L (≈ 118 µM) in [5]; over 64 mg/L in assay [6]. The MIC in [7] is over 64 mg/L; in assay [8], over 64 mg/L; in assay [9], over 64 mg/L; in assay [10] (setting [13]), over 64 mg/L; in [10] (setting [14]), over 64 mg/L; in assay [10] (setting [15]), 64 mg/L (≈ 118 µM). Also, the MIC was 32 mg/L (≈ 58.9 µM) in assay [10] (setting [16]); 64 mg/L (≈ 118 µM) in assay [10] (setting [17]); over 64 mg/L in assay [10] (setting [18]); over 64 mg/L in assay [11] (setting [19]); over 64 mg/L in assay [11] (setting [20]); over 64 mg/L in assay [11] (setting [21]). For the same molecule, the MIC in assay [11] (setting [22]) was over 64 mg/L; in [12], 64 mg/L (≈ 118 µM).
Turning to `CC1=C\[C@@H](O)CC(=O)Cc2nc(co2)C(=O)N[C@H](Cc2ccccc2)C(=O)O[C@H](C(C)C)[C@H](C)/C=C/C(=O)NC\C=C\1` [SA0202061], the MIC in [1] was 16 mg/L (≈ 27.7 µM); in assay [2], over 64 mg/L; in assay [3] it was 32 mg/L (≈ 55.4 µM); in assay [4], over 64 mg/L; in assay [5], 32 mg/L (≈ 55.4 µM); in assay [6] it was 64 mg/L (≈ 111 µM). The MIC in [7] is over 64 mg/L; in [8], over 64 mg/L; in assay [9], 64 mg/L (≈ 111 µM); in [10] (setting [13]) it was over 64 mg/L; in assay [10] (setting [14]), over 64 mg/L; in assay [10] (setting [15]), 16 mg/L (≈ 27.7 µM). In addition, the MIC in [10] (setting [16]) was 4 mg/L (≈ 6.92 µM); in [10] (setting [17]) it was 4 mg/L (≈ 6.92 µM); in assay [10] (setting [18]), over 64 mg/L; in assay [11] (setting [19]), 64 mg/L (≈ 111 µM); in assay [11] (setting [20]), 64 mg/L (≈ 111 µM); in assay [11] (setting [21]) it was 64 mg/L (≈ 111 µM). Besides, the figures for the MIC in assay [11] (setting [22]) and in assay [12] were 64 mg/L (≈ 111 µM) and over 64 mg/L, respectively.
On to `CC1=C\[C@@H](O)CC(=O)Cc2nc(co2)C(=O)N[C@H](CCCCN)C(=O)O[C@H](C(C)C)[C@H](C)/C=C/C(=O)NC\C=C\1` [SA0202094], for which the MIC in assay [1], in assay [2], in assay [3], in [4], in [5] and in assay [6] was over 64 mg/L each time. In addition, the MIC in assay [7], in [8], in assay [9], in assay [10] (setting [13]), in assay [10] (setting [14]) and in assay [10] (setting [15]) was over 64 mg/L each time. Further, the MIC is over 64 mg/L in assay [10] (setting [16]); 32 mg/L (≈ 57.3 µM) in assay [10] (setting [17]); over 64 mg/L in assay [10] (setting [23]); over 64 mg/L in [10] (setting [18]); over 64 mg/L in assay [11] (setting [19]); over 64 mg/L in assay [11] (setting [20]). For the same molecule, the MIC in assay [11] (setting [21]), in [11] (setting [22]) and in assay [12] was over 64 mg/L each time.
As to `CC1=C\[C@@H](O)CC(=O)Cc2nc(co2)C(=O)N2CCC[C@@H]2C(=O)O[C@H]([C@H](C)COC(=O)Nc2coc(C)n2)[C@H](C)/C=C/C(=O)NC\C=C\1` [SA0110210], the MIC in assay [1] is 64 mg/L (≈ 95.8 µM); in assay [2] it was over 64 mg/L; in assay [3] it was over 64 mg/L; in assay [4] it was over 64 mg/L; in [5], 64 mg/L (≈ 95.8 µM); in [6] it was 64 mg/L (≈ 95.8 µM). Moreover, the MIC in assay [7], in [8], in [9], in assay [10] (setting [13]), in [10] (setting [14]) and in [10] (setting [15]) was over 64 mg/L each time. The MIC is 8 mg/L (≈ 12 µM) in assay [10] (setting [16]); 8 mg/L (≈ 12 µM) in assay [10] (setting [17]); over 64 mg/L in [10] (setting [23]); over 64 mg/L in assay [10] (setting [18]); over 64 mg/L in [11] (setting [19]); over 64 mg/L in [11] (setting [20]). The MIC in assay [11] (setting [21]) is over 64 mg/L; in assay [11] (setting [22]), over 64 mg/L; in [12] it was 16 mg/L (≈ 24 µM).
For the molecule `CC1=C\[C@@H](O)CC(=O)Cc2nc(co2)C(=O)N2CCC[C@@H]2C(=O)O[C@H]([C@@H](C)COC(=O)Nc2ccnc(Br)c2)[C@H](C)/C=C/C(=O)NC\C=C\1` [SA0110081], the MIC in assay [1] was 32 mg/L (≈ 43.1 µM); in [2], over 64 mg/L; in assay [3], over 64 mg/L; in [4], over 64 mg/L; in [5], 32 mg/L (≈ 43.1 µM); in assay [6], over 64 mg/L. Moreover, the MIC is over 64 mg/L in [7]; over 64 mg/L in assay [8]; over 64 mg/L in [9]; over 64 mg/L in [10] (setting [13]); over 64 mg/L in assay [10] (setting [14]); 32 mg/L (≈ 43.1 µM) in [10] (setting [15]). Further, the MIC in [10] (setting [16]) was 4 mg/L (≈ 5.39 µM); in [10] (setting [17]) it was 32 mg/L (≈ 43.1 µM); in assay [10] (setting [18]) it was over 64 mg/L; in assay [11] (setting [19]) it was over 64 mg/L; in assay [11] (setting [20]) it was 32 mg/L (≈ 43.1 µM); in [11] (setting [21]), over 64 mg/L. The MIC in assay [11] (setting [22]) and in assay [12] was over 64 mg/L in each case.
With `COc1ccc(NC(=O)OC[C@H](C)[C@H]2OC(=O)[C@H]3CCCN3C(=O)c3coc(n3)CC(=O)C[C@H](O)/C=C(C)/C=C/CNC(=O)/C=C/[C@H]2C)cc1` [SA0110040], the MIC in [1] is 16 mg/L (≈ 23.1 µM); in assay [2] it was over 64 mg/L; in assay [3], over 64 mg/L; in assay [4], over 64 mg/L; in assay [5], 16 mg/L (≈ 23.1 µM); in assay [6] it was 64 mg/L (≈ 92.4 µM). Moreover, the MIC in assay [7] is over 64 mg/L; in assay [8] it was over 64 mg/L; in assay [9], over 64 mg/L; in assay [10] (setting [13]), over 64 mg/L; in assay [10] (setting [14]) it was over 64 mg/L; in [10] (setting [15]), 16 mg/L (≈ 23.1 µM). Also, the MIC is 2 mg/L (≈ 2.89 µM) in assay [10] (setting [16]); 8 mg/L (≈ 11.5 µM) in [10] (setting [17]); over 64 mg/L in assay [10] (setting [18]); 32 mg/L (≈ 46.2 µM) in [11] (setting [19]); 16 mg/L (≈ 23.1 µM) in assay [11] (setting [20]); 32 mg/L (≈ 46.2 µM) in [11] (setting [21]). Also, the results for the MIC in assay [11] (setting [22]) and in assay [12] were 64 mg/L (≈ 92.4 µM) and 16 mg/L (≈ 23.1 µM), respectively.

Source of the values: US20200325177A1, “METHODS OF MAKING STREPTOGRAMIN COMPOSITIONS AND THE USE THEREOF” (THE REGENTS OF THE UNIVERSITY OF CALIFORNIA, priority 2017, published 2020).
